Measurements as given in PubChem BioAssay (NCI).
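Cells were grown in 96-well plates and exposed to each compound for 48 hours at five concentrations; endpoints were interpolated linearly between bracketing concentrations, or set to the highest concentration if not reached. TGI denotes the concentration required for complete inhibition of growth.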

Legend:
Assay in all cases: NCI tumour cell line growth inhibition, 48 h
OVCAR-3 ovarian = system: OVCAR-3 ovarian
SNB-78 CNS = system: SNB-78 CNS
RXF 393 renal = system: RXF 393 renal
HOP-92 NSCLC = system: HOP-92 NSCLC
SK-MEL-28 melanoma = system: SK-MEL-28 melanoma
SNB-75 CNS = system: SNB-75 CNS
SK-MEL-5 melanoma = system: SK-MEL-5 melanoma
KM20L2 colon = system: KM20L2 colon
K-562 leukemia = system: K-562 leukemia
NCI-H522 lung = system: NCI-H522 lung
COLO 205 colon = system: COLO 205 colon
SK-MEL-2 melanoma = system: SK-MEL-2 melanoma
M14 melanoma = system: M14 melanoma
SNB-19 CNS = system: SNB-19 CNS
DMS 273 small cell lung = system: DMS 273 small cell lung
LXFL 529 NSCLC = system: LXFL 529 NSCLC
HOP-62 NSCLC = system: HOP-62 NSCLC
LOX IMVI melanoma = system: LOX IMVI melanoma
HCT-15 colon = system: HCT-15 colon
RPMI-8226 leukemia = system: RPMI-8226 leukemia
NCI-H226 lung = system: NCI-H226 lung
SF-539 CNS = system: SF-539 CNS
RXF-631 renal = system: RXF-631 renal
UACC-62 melanoma = system: UACC-62 melanoma
UO-31 renal = system: UO-31 renal
786-0 renal = system: 786-0 renal
U251 CNS = system: U251 CNS
EKVX NSCLC = system: EKVX NSCLC
SN12C renal = system: SN12C renal
HT29 colon = system: HT29 colon
IGROV1 ovarian = system: IGROV1 ovarian
CCRF-CEM leukemia = system: CCRF-CEM leukemia
MOLT-4 leukemia = system: MOLT-4 leukemia
NCI-H460 lung = system: NCI-H460 lung
SW-620 colon = system: SW-620 colon
OVCAR-8 ovarian = system: OVCAR-8 ovarian
DLD-1 colon = system: DLD-1 colon
KM12 colon = system: KM12 colon
NCI-H23 lung = system: NCI-H23 lung
HCT-116 colon = system: HCT-116 colon
XF 498 CNS = system: XF 498 CNS
MALME-3M melanoma = system: MALME-3M melanoma
SF-295 CNS = system: SF-295 CNS
HCC-2998 colon = system: HCC-2998 colon
A498 renal = system: A498 renal
SF-268 CNS = system: SF-268 CNS
SR leukemia = system: SR leukemia
HL-60(TB) leukemia = system: HL-60(TB) leukemia
SK-OV-3 ovarian = system: SK-OV-3 ovarian
UACC-257 melanoma = system: UACC-257 melanoma
OVCAR-4 ovarian = system: OVCAR-4 ovarian
TK-10 renal = system: TK-10 renal
M19-MEL melanoma = system: M19-MEL melanoma
ACHN renal = system: ACHN renal
HOP-18 NSCLC = system: HOP-18 NSCLC
CAKI-1 renal = system: CAKI-1 renal
OVCAR-5 ovarian = system: OVCAR-5 ovarian
A549 NSCLC = system: A549 NSCLC
DMS 114 small cell lung = system: DMS 114 small cell lung

With `CCOc1ccc(NC(=O)CC2C(=O)Nc3ccccc3S2=O)cc1` (stereo not given) the TGI (OVCAR-3 ovarian) was > 78.7 µM, the TGI (SNB-78 CNS) was > 100 µM and the TGI (RXF 393 renal) was 66.9 µM. The TGI (HOP-92 NSCLC) was > 70.6 µM, the TGI (SK-MEL-28 melanoma) was > 100 µM and the TGI (SNB-75 CNS) was 50.6 µM. For the same molecule, the TGI (SK-MEL-5 melanoma) was > 100 µM, the TGI (KM20L2 colon) was > 46.4 µM and the TGI (K-562 leukemia) was > 100 µM. For the same molecule, the TGI (NCI-H522 lung) was > 100 µM, the TGI (COLO 205 colon) was > 100 µM and the TGI (SK-MEL-2 melanoma) was > 100 µM. The TGI (M14 melanoma) was > 100 µM, the TGI (SNB-19 CNS) was > 89.3 µM and the TGI (DMS 273 small cell lung) was > 100 µM. The TGI (LXFL 529 NSCLC) was > 100 µM, the TGI (HOP-62 NSCLC) was > 100 µM and the TGI (LOX IMVI melanoma) was > 100 µM. The TGI (HCT-15 colon) was > 100 µM, the TGI (RPMI-8226 leukemia) was > 100 µM and the TGI (NCI-H226 lung) was > 86.7 µM. For the same molecule, the TGI (SF-539 CNS) was > 100 µM, the TGI (RXF-631 renal) was > 100 µM and the TGI (UACC-62 melanoma) was > 46.4 µM. The TGI (UO-31 renal) was > 83.1 µM, the TGI (786-0 renal) was > 76.6 µM and the TGI (U251 CNS) was > 75.4 µM. The TGI (EKVX NSCLC) was > 46.4 µM, the TGI (SN12C renal) was > 100 µM and the TGI (HT29 colon) was > 100 µM. For the same molecule, the TGI (IGROV1 ovarian) was > 100 µM, the TGI (CCRF-CEM leukemia) was > 100 µM and the TGI (MOLT-4 leukemia) was > 100 µM. The TGI (NCI-H460 lung) was > 100 µM, the TGI (SW-620 colon) was > 100 µM and the TGI (OVCAR-8 ovarian) was > 85.8 µM. For the same molecule, the TGI (DLD-1 colon) was > 100 µM, the TGI (KM12 colon) was > 100 µM and the TGI (NCI-H23 lung) was > 100 µM. For the same molecule, the TGI (HCT-116 colon) was > 100 µM, the TGI (XF 498 CNS) was 74.4 µM and the TGI (MALME-3M melanoma) was > 100 µM. For the same molecule, the TGI (SF-295 CNS) was > 100 µM, the TGI (HCC-2998 colon) was > 100 µM and the TGI (A498 renal) was > 78.5 µM. For the same molecule, the TGI (SF-268 CNS) was > 100 µM, the TGI (SR leukemia) was > 88.5 µM and the TGI (HL-60(TB) leukemia) was > 100 µM. For the same molecule, the TGI (SK-OV-3 ovarian) was > 100 µM, the TGI (UACC-257 melanoma) was > 100 µM and the TGI (OVCAR-4 ovarian) was > 70.2 µM. The TGI (TK-10 renal) was > 96.2 µM, the TGI (M19-MEL melanoma) was > 100 µM and the TGI (ACHN renal) was > 86.7 µM. For the same molecule, the TGI (HOP-18 NSCLC) was > 100 µM, the TGI (CAKI-1 renal) was > 92.9 µM and the TGI (OVCAR-5 ovarian) was > 100 µM. The TGI (A549 NSCLC) was > 100 µM.
In the case of `COc1cc(C2C(C(=O)O)=C(CO)Oc3cc4c(cc32)OCO4)cc(OC)c1OC` (stereo not given), the TGI (SNB-78 CNS) is reported as > 100 µM, the TGI (RXF 393 renal) is reported as > 100 µM and the TGI (HOP-92 NSCLC) is reported as > 100 µM. For the same molecule, the TGI (SK-MEL-28 melanoma) was > 100 µM, the TGI (SNB-75 CNS) was > 100 µM and the TGI (SK-MEL-5 melanoma) was > 100 µM. The TGI (KM20L2 colon) was > 100 µM, the TGI (K-562 leukemia) was > 100 µM and the TGI (COLO 205 colon) was > 100 µM. For the same molecule, the TGI (M14 melanoma) was > 100 µM, the TGI (SNB-19 CNS) was > 100 µM and the TGI (DMS 273 small cell lung) was > 100 µM. For the same molecule, the TGI (LOX IMVI melanoma) was > 100 µM, the TGI (HCT-15 colon) was > 100 µM and the TGI (RPMI-8226 leukemia) was > 100 µM. The TGI (RXF-631 renal) was > 100 µM, the TGI (UACC-62 melanoma) was > 100 µM and the TGI (UO-31 renal) was > 100 µM. For the same molecule, the TGI (U251 CNS) was > 100 µM, the TGI (EKVX NSCLC) was > 100 µM and the TGI (SN12C renal) was > 100 µM. For the same molecule, the TGI (HT29 colon) was > 100 µM, the TGI (IGROV1 ovarian) was > 100 µM and the TGI (CCRF-CEM leukemia) was > 100 µM. The TGI (MOLT-4 leukemia) was > 100 µM, the TGI (DMS 114 small cell lung) was > 100 µM and the TGI (NCI-H460 lung) was > 100 µM. The TGI (SW-620 colon) was > 100 µM, the TGI (OVCAR-8 ovarian) was > 100 µM and the TGI (DLD-1 colon) was > 100 µM. The TGI (NCI-H23 lung) was > 100 µM, the TGI (HCT-116 colon) was > 100 µM and the TGI (XF 498 CNS) was > 100 µM. For the same molecule, the TGI (SF-295 CNS) was > 100 µM, the TGI (HL-60(TB) leukemia) was > 100 µM and the TGI (SK-OV-3 ovarian) was > 100 µM. For the same molecule, the TGI (UACC-257 melanoma) was > 100 µM, the TGI (OVCAR-4 ovarian) was > 100 µM and the TGI (TK-10 renal) was > 100 µM. The TGI (M19-MEL melanoma) was > 100 µM, the TGI (ACHN renal) was > 100 µM and the TGI (HOP-18 NSCLC) was > 100 µM. The TGI (CAKI-1 renal) was > 100 µM, the TGI (OVCAR-5 ovarian) was > 100 µM and the TGI (A549 NSCLC) was > 100 µM.
`COC(=O)C(C(=O)C(=O)Nc1nc(=S)[nH][nH]1)c1csc(N)n1` (stereo not given) was tested, and the TGI (OVCAR-3 ovarian) was > 100 µM, the TGI (SNB-78 CNS) was > 100 µM and the TGI (RXF 393 renal) was > 100 µM. For the same molecule, the TGI (SK-MEL-28 melanoma) was > 100 µM, the TGI (SNB-75 CNS) was > 100 µM and the TGI (SK-MEL-5 melanoma) was > 100 µM. For the same molecule, the TGI (KM20L2 colon) was > 100 µM, the TGI (K-562 leukemia) was > 100 µM and the TGI (NCI-H522 lung) was > 100 µM. For the same molecule, the TGI (COLO 205 colon) was > 100 µM, the TGI (SK-MEL-2 melanoma) was > 100 µM and the TGI (M14 melanoma) was > 100 µM. The TGI (SNB-19 CNS) was > 100 µM, the TGI (DMS 273 small cell lung) was > 100 µM and the TGI (LXFL 529 NSCLC) was > 100 µM. The TGI (HOP-62 NSCLC) was > 100 µM, the TGI (LOX IMVI melanoma) was > 100 µM and the TGI (HCT-15 colon) was > 100 µM. For the same molecule, the TGI (RPMI-8226 leukemia) was > 100 µM, the TGI (NCI-H226 lung) was > 100 µM and the TGI (SF-539 CNS) was > 100 µM. For the same molecule, the TGI (RXF-631 renal) was > 100 µM, the TGI (UACC-62 melanoma) was > 100 µM and the TGI (UO-31 renal) was > 100 µM. For the same molecule, the TGI (786-0 renal) was > 100 µM, the TGI (U251 CNS) was > 100 µM and the TGI (EKVX NSCLC) was > 100 µM. The TGI (SN12C renal) was > 100 µM, the TGI (HT29 colon) was > 100 µM and the TGI (IGROV1 ovarian) was > 100 µM. For the same molecule, the TGI (CCRF-CEM leukemia) was > 100 µM, the TGI (MOLT-4 leukemia) was > 100 µM and the TGI (NCI-H460 lung) was > 100 µM. For the same molecule, the TGI (SW-620 colon) was > 100 µM, the TGI (OVCAR-8 ovarian) was > 100 µM and the TGI (DLD-1 colon) was > 100 µM. For the same molecule, the TGI (KM12 colon) was > 100 µM, the TGI (NCI-H23 lung) was > 100 µM and the TGI (HCT-116 colon) was > 100 µM. For the same molecule, the TGI (XF 498 CNS) was > 100 µM, the TGI (MALME-3M melanoma) was > 100 µM and the TGI (SF-295 CNS) was > 100 µM. The TGI (HCC-2998 colon) was > 100 µM, the TGI (A498 renal) was > 100 µM and the TGI (SF-268 CNS) was > 100 µM. For the same molecule, the TGI (SR leukemia) was > 100 µM, the TGI (HL-60(TB) leukemia) was > 100 µM and the TGI (SK-OV-3 ovarian) was > 100 µM. For the same molecule, the TGI (UACC-257 melanoma) was > 100 µM, the TGI (OVCAR-4 ovarian) was > 100 µM and the TGI (TK-10 renal) was > 100 µM. For the same molecule, the TGI (M19-MEL melanoma) was > 100 µM, the TGI (ACHN renal) was > 100 µM and the TGI (HOP-18 NSCLC) was > 100 µM. The TGI (CAKI-1 renal) was > 100 µM, the TGI (OVCAR-5 ovarian) was > 100 µM and the TGI (A549 NSCLC) was > 100 µM.
